The values that follow come from patent US12448371B2, “Inhibitor compounds” (Cincera Therapeutics Pty Ltd, priority 2019, dated 2025).

In this experiment the target is T1, Des1 (h) (Homo sapiens, UniProt O15121).
T1 construct: endogenous in cells; host or cells: parental Jurkat cells
T1 sequence (O15121 1-323): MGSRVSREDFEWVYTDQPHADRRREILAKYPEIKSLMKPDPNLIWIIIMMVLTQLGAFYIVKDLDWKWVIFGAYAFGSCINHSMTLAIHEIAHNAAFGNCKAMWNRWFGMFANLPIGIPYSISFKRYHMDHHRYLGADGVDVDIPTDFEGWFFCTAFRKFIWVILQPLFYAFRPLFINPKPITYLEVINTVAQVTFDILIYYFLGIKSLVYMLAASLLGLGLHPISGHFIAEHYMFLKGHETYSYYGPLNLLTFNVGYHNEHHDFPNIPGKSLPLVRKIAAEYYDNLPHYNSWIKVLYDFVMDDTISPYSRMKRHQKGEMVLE
The experiment in a line: Measurement of Dihydroceramide Desaturase-1 (Des-1) activity in intact Jurkat cells labeled with DhCer-C6-NBD (HPLC). Type of experiment: cell-based. To be noted: for IC50: intact Jurkat cells, given as concentration range, or <X / >X if measured at one concentration X only, read-out: Des1 (h) Jurkat IC50. As for the experimental part:
Measurement of Dihydroceramide Desaturase-1 (Des-1) Activity
Compounds were assessed for Des-1 inhibitory activity. Measurement of Des1 activity was performed by HPLC using intact Jurkat cells labeled with DhCer-C6-NBD as described previously (Munoz-Olaya, J. M. et al. ChemMedChem 2008, 3, 946-953) with modifications to enhance sensitivity and reproducibility. These modifications included the use of parental Jurkat cells, 0.5% serum in the culture media, and cell harvesting via centrifugation at 500×g to maximise ceramide extraction. Extracted samples (50 ul) were analysed on a Waters HPLC coupled to a fluorescence detector using a 30 cm C18 reverse-phase column eluted with 1 ml/min 20% H2O and 80% acetonitrile, both with a 0.1% of trifluoroacetic acid. NBD-labelled substrate and product were quantitated with an excitation and emission wavelengths of 465 nm and 530 nm, respectively.

The structures appear in SMILES notation. Counter-ions that a name gives are not always drawn.

As to `Cc1cc(Nc2ncc(-c3ccc(C(F)(F)F)cc3)o2)cnc1C(=O)N(C)O` [Example 21, N-Hydroxy-N,3-dimethyl-5-((5-(4-(trifluoromethyl)phenyl)oxazol-2-yl)amino)picolinamide], the IC50 was above 1000 nM. Besides, at 1 µM the inhibition (Jurkat cells, 1 μM) was 38%.

In the case of `O=C(c1ccc(Nc2ncc(-c3ccc(C(F)(F)F)cc3)o2)cn1)N(O)CCO` [Example 22, N-Hydroxy-N-(2-hydroxyethyl)-5-((5-(4-(trifluoromethyl)phenyl)oxazol-2-yl)amino)picolinamide], the “% inhibition of Des1 at 10 μM” value (Jurkat cells, 10 μM) is on record as 81%.

In the case of `CN(O)C(=O)c1ccc(Nc2ncn(-c3ccc(C(F)(F)F)cc3)n2)cn1` [Example 25, N-Hydroxy-N-methyl-5-((1-(4-(trifluoromethyl)phenyl)-1H-1,2,4-triazol-3-yl)amino)picolinamide], the 50% inhibitory concentration (IC50) is below 1000 nM.

Regarding `N/C(=N\O)c1ncc(Nc2ncc(-c3ccc(C(F)(F)F)cc3)o2)cc1O` [Example 26, N′,3-Dihydroxy-5-((5-(4-(trifluoromethyl)phenyl)oxazol-2-yl)amino)picolinimidamide], the IC50 was 1 to 10 nM.

For `Cc1cc(Nc2ncc(-c3ccc(C(F)(F)F)cc3)o2)cc(=O)n1O` [Example 27, 1-Hydroxy-6-methyl-4-((5-(4-(trifluoromethyl)phenyl)oxazol-2-yl)amino)pyridin-2(1H)-one], the 50% inhibitory concentration (IC50) lay within 0.1 to 1 nM.

With `CN(O)C(=O)c1ncc(Nc2ncc(-c3ccc(C(F)(F)F)cc3)o2)cc1O` [Example 28, N,3-Dihydroxy-N-methyl-5-((5-(4-(trifluoromethyl)phenyl)oxazol-2-yl)amino)picolinamide], the concentration for half-maximal inhibition (IC50) was below 1000 nM.

In the case of `O=c1c(O)c(Nc2ccc(Nc3ncc(-c4ccc(C(F)(F)F)cc4)o3)cn2)c1=O` [Example 30, 3-Hydroxy-4-((5-((5-(4-(trifluoromethyl)phenyl)oxazol-2-yl)amino)pyridin-2-yl)amino)cyclobut-3-ene-1,2-dione], the 50% inhibitory concentration (IC50) is below 1000 nM.

Consider `N/C(=N\O)c1ncc(Nc2ncn(-c3ccc(C(F)(F)F)cc3)n2)cc1O` [Example 31, N′,3-Dihydroxy-5-((1-(4-(trifluoromethyl)phenyl)-1H-1,2,4-triazol-3-yl)amino)picolinimidamide], for which the concentration for half-maximal inhibition (IC50) is below 1000 nM.

For `CCN(O)C(=O)c1ccc(Nc2ncc(-c3ccc(C(F)(F)F)cc3)o2)cn1` [Example 32, N-Ethyl-N-hydroxy-5-((5-(4-(trifluoromethyl)phenyl)oxazol-2-yl)amino)picolinamide], the IC50 is below 1000 nM.

As for `CC(C)N(O)C(=O)c1ccc(Nc2ncc(-c3ccc(C(F)(F)F)cc3)o2)cn1` [Example 34, N-Hydroxy-N-isopropyl-5-((5-(4-(trifluoromethyl)phenyl)oxazol-2-yl)amino)picolinamide], the IC50 was above 1000 nM. Also, the inhibition at 1 µM (Jurkat cells, 1 μM) turned out to be 23%.

In the case of `CN(O)C(=O)Nc1ccc(Nc2ncc(-c3ccc(C(F)(F)F)cc3)o2)cn1` [Example 35, 1-Hydroxy-1-methyl-3-(5-((5-(4-(trifluoromethyl)phenyl)oxazol-2-yl)amino)pyridin-2-yl)urea], the concentration for half-maximal inhibition (IC50) was in the range of 10 to 100 nM.

As to `O=C(NC[C@@H](O)CO)c1ccc(Nc2ncc(-c3ccc(C(F)(F)F)cc3)o2)cn1` [Example 36, (R)—N-(2,3-Dihydroxypropyl)-5-((5-(4-(trifluoromethyl)phenyl)oxazol-2-yl)amino)picolinamide], the IC50 was in the range of 1 to 10 nM.

Regarding `O=C(NC[C@H](O)CO)c1ccc(Nc2ncc(-c3ccc(C(F)(F)F)cc3)o2)cn1` [Example 37, (S)—N-(2,3-Dihydroxypropyl)-5-((5-(4-(trifluoromethyl)phenyl)oxazol-2-yl)amino)picolinamide], the IC50 is above 1000 nM. Further, the “% inhibition of Des1 at 1 μM” value (Jurkat cells, 1 μM) is on record as “no inhibition”.

In the case of `O=C(NC[C@@H](O)CO)c1ccc(Nc2ncn(-c3ccc(C(F)(F)F)cc3)n2)cn1` [Example 38, (R)—N-(2,3-Dihydroxypropyl)-5-((1-(4-(trifluoromethyl)phenyl)-1H-1,2,4-triazol-3-yl)amino)picolinamide], the half-inhibitory concentration (IC50) is above 1000 nM. In addition, where the note is “Jurkat cells, 1 μM”, the inhibition at 1 µM was 30%.

For `Cc1nc(Nc2cnc(/C(N)=N/O)c(O)c2)oc1-c1ccc(C(F)(F)F)cc1` [Example 39, N′,3-Dihydroxy-5-((4-methyl-5-(4-(trifluoromethyl)phenyl)oxazol-2-yl)amino)picolinimidamide], the IC50 was below 1000 nM.

Turning to `N/C(=N\O)c1ncc(Nc2ncc(-c3ccc(C(F)(F)F)cn3)o2)cc1O` [Example 40, N′,3-Dihydroxy-5-((5-(5-(trifluoromethyl)pyridin-2-yl)oxazol-2-yl)amino)picolinimidamide hydrochloride], the IC50 fell in the range of 10 to 100 nM.

Consider `O=C(NC[C@@H](O)CO)c1ccc(Nc2ncc(-c3ccc(C(F)(F)F)cc3)o2)nn1` [Example 41, (R)—N-(2,3-Dihydroxypropyl)-6-((5-(4-(trifluoromethyl)phenyl)oxazol-2-yl)amino)-pyridazine-3-carboxamide], for which the IC50 was below 100 nM.

Take `N/C(=N\O)c1ncc(Nc2ncc(-c3ccc(C(F)(F)F)c(F)c3)o2)cc1O` [Example 43, 5-((5-(3-Fluoro-4-(trifluoromethyl)phenyl)oxazol-2-yl)amino)-N′,3-dihydroxypicolinimidamide]: the 50% inhibitory concentration (IC50) fell in the range of 1 to 10 nM.

For the molecule `O=C(NC[C@@H](O)CO)c1ccc(Nc2ncc(-c3ccc(C(F)(F)F)c(F)c3)o2)cn1` [Example 44, (R)—N-(2,3-Dihydroxypropyl)-5-((5-(3-fluoro-4-(trifluoromethyl)phenyl)oxazol-2-yl)amino)picolinamide], the half-inhibitory concentration (IC50) fell in the range of 1 to 10 nM.

In the case of `N/C(=N\O)c1ccc(Nc2ncc(-c3ccc(C(F)(F)F)c(F)c3)o2)cn1` [Example 45, 5-((5-(3-Fluoro-4-(trifluoromethyl)phenyl)oxazol-2-yl)amino)-N′-hydroxypicolinimidamide], the 50% inhibitory concentration (IC50) was below 100 nM.

Take `N=C(NO)c1ccc(Nc2ncc(-c3ccc(F)cc3)o2)nn1` [Example 47, 6-((5-(4-Fluorophenyl)oxazol-2-yl)amino)-N′-hydroxypyridazine-3-carboximidamide]: the IC50 is below 100 nM.

On to `N=C(NO)c1ccc(Nc2ncc(-c3ccc(F)c(F)c3)o2)nn1` [Example 48, 6-((5-(3,4-Difluorophenyl)oxazol-2-yl)amino)-N′-hydroxypyridazine-3-carboximidamide], for which the IC50 was 1 to 10 nM.

Regarding `N=C(NO)c1ccc(Nc2ncc(-c3ccc(F)cn3)o2)nn1` [Example 49, 6-((5-(5-Fluoropyridin-2-yl)oxazol-2-yl)amino)-N′-hydroxypyridazine-3-carboximidamide], the IC50 was below 100 nM.

Regarding `N=C(NO)c1cc(Nc2ncc(-c3ccc(C(F)(F)F)cc3)o2)ncc1O` [Example 50, N,5-Dihydroxy-2-((5-(4-(trifluoromethyl)phenyl)oxazol-2-yl)amino)isonicotinimid-amide], the IC50 was below 1000 nM.

For the molecule `N/C(=N\O)c1ccc(Nc2ncc(-c3ccc(OC(F)F)cc3)o2)cn1` [Example 51, 5-((5-(4-(Difluoromethoxy)phenyl)oxazol-2-yl)amino)-N′-hydroxy picolinimidamide], the IC50 was in the range of 100 to 1000 nM.

Consider `N/C(=N\O)c1ccc(Nc2ncc(-c3ccc(C(F)F)cc3)o2)cn1` [Example 52, 5-((5-(4-(Difluoromethyl)phenyl)oxazol-2-yl)amino)-N′-hydroxypicolinimidamide], for which the half-maximal inhibitory concentration (IC50) lay within 100 to 1000 nM.

On to `N/C(=N\O)c1ccc(Nc2ncc(-c3ccc(C(F)(F)F)cc3)o2)nn1` [Example 53, N′-Hydroxy-6-((5-(4-(trifluoromethyl)phenyl)oxazol-2-yl)amino)pyridazine-3-carboximidamide], for which the IC50 fell in the range of 1 to 10 nM.

As for `N/C(=N\O)c1ncc(Nc2ncc(-c3ccc(C(F)(F)F)cn3)o2)cc1F` [Example 56, 3-Fluoro-N′-hydroxy-5-((5-(5-(trifluoromethyl)pyridin-2-yl)oxazol-2-yl)amino)picolinimidamide], the “% inhibition of Des1 at 0.1 μM” value (Jurkat cells, 0.1 μM) turned out to be 86%.

As to `N/C(=N\O)c1ncc(Nc2ncc(-c3ccc(C(F)(F)F)cn3)o2)cn1` [Example 58, N′-Hydroxy-5-((5-(5-(trifluoromethyl)pyridin-2-yl)oxazol-2-yl)amino)pyrimidine-2-carboximidamide], the IC50 was above 1000 nM. Also, the inhibition at 1 µM (Jurkat cells, 1 μM) came out at 40%.

Consider `N/C(=N\O)c1ccc(Nc2ncc(-c3ccc(C(F)(F)F)nc3)o2)cn1` [Example 59, N′-Hydroxy-5-((5-(6-(trifluoromethyl)pyridin-3-yl)oxazol-2-yl)amino)picolinimidamide], for which the IC50 was below 1000 nM.

Turning to `N/C(=N\O)c1ccc(Nc2nc(-c3ccc(C(F)(F)F)cc3)co2)cn1` [Example 60, N′-Hydroxy-5-((4-(4-(trifluoromethyl)phenyl)oxazol-2-yl)amino)picolinimidamide], the half-inhibitory concentration (IC50) is below 1000 nM.

As to `N/C(=N\O)c1ccc(Nc2ncc(-c3ccc(C(F)(F)F)cn3)o2)nn1` [Example 61, N′-hydroxy-6-((5-(5-(trifluoromethyl)pyridin-2-yl)oxazol-2-yl)amino)pyridazine-3-carboximidamide], the IC50 was below 100 nM.

The term inhibition denotes the relative decrease from the control value, in per cent. A higher inhibition goes with a strong effect. Usually IC50 stands for the midpoint of a concentration-inhibition curve.
